Measured values as given in patent US20150080465A1 (priority 2013, published 2015).

Legend:
[1] = tested on: patients with type 2 diabetes and overt nephropathy; settings: in vivo; cited from earlier work
[2] = monkeys, equivalent dosages orally in gelatin capsules; cited from earlier work
[3] = tested on: monocrotaline (MCT)-induced pulmonary arterial hypertension; settings: rat, in vivo

In the case of COc1ccccc1Oc1c(NS(=O)(=O)c2ccc(C)cn2)nc(-c2ccncc2)nc1OC [Avosentan], the “Fluid overload-related adverse events, serious and non-serious” value [1] is listed as “increased only within the first month of treatment”.
For COC(=O)C12CCC(C)(C)CC1C1C(=O)C=C3C4(C)C=C(C#N)C(=O)C(C)(C)C4CCC3(C)C1(C)CC2 (stereo not drawn) [Form B], the Bioavailability [2] is given as “higher than that of Form A”.
With CCCc1nn(C)c2c(=O)[nH]c(-c3cc(S(=O)(=O)N4CCN(C)CC4)ccc3OCC)nc12 [sildenafil] the Pulmonary edema [3] was “completely abrogated”.
